The record followed here is patent US20260235593A1, “FRET BIOSENSOR RECOMBINANT PROTEINS” (The Regents of the University of California, priority 2023, published 2026).

Holding throughout (assay type): cell-based
For test [1], the system named is protein kinase A (PKA). The experiment in a line: FRET-based AKAR imaging of PKA activity in HeLa cells upon Fsk/IBMX stimulation. The text has this:
In order to generate KARs that are both bright and photostable, we replaced one of the FPs in the prototypic FRET-based A kinase activity reporter AKAR4 with the self-labeling protein tag HaloTag, which can be flexibly labeled with synthetic fluorophores in different spectral regions. Here, we used a specific green-yellow HaloTag fluorophore (NGD, Table 1)^[12]. To identify the best FRET acceptor for HaloTag^(NGD), we selected a panel of 12 different RFPs with different excitation and emission properties. Given that the FRET efficiency depends not only on the distance between the donor and the acceptor fluorophore, but also on their relative orientation[^13], we tested two different domain orientations (HaloTag-RFP or RFP-HaloTag) and two different linker lengths (flexible linker with 14 amino acids or EV linker with 116 amino acids^[14], FIG. 1A). […] The 48 biosensors were transfected into HeLa cells, the HaloTag labeled with NGD, and the cells stimulated with 50 i.iM forskolin (Fsk) and 100 i.iM 3-isobutyl-1-methylxanthine (IBMX, FIG. 1B). […] We used NGD to label cpHaloTag and measured their response upon Fsk/IBMX stimulation. […] We overexpressed the reporters in HeLa cells and monitored changes in PKA activity after stimulation with 50 tM Fsk and 100 tM IBMX. […] We additionally quantified the on and off kinetics of the biosensor. […]

The target of test [2] is T1, PKA (Homo sapiens, UniProt P17612).
T1 construct: endogenous in cells; host or cells: HEK293T; only the biosensors are transfected
As to the kind of experiment: Multiplexed biosensor imaging in HEK293T cells: PKA activity (red/far-red HaloTag-AKAR). Particulars: HEK293T cells co-expressing yellow/far-red HaloTag-EKAR and red/far-red HaloTag-AKAR; 100 ng/mL hEGF; Fsk and 100 μM IBMX together; M H89. The protocol:
(§1) Cell culture and transfection HeLa and HEK293T cells were cultured in Dulbecco's modified Eagle medium (DMEM; Gibco) containing glucose (1 g/L) and supplemented with 10% (v/v) fetal bovine serum (Sigma-Aldrich) and 1% (v/v) penicillin-streptomycin (Pen-Strep; Sigma-Aldrich). NIH3T3 cells were cultured in DMEM (Gibco) containing glucose (1 g/L) and supplemented with 10% (v/v) fetal calf serum and 1% (v/v) Pen-Strep (Sigma-Aldrich). All cells were maintained in a humidified incubator at 37° C. with a 5% CO2 atmosphere. Before transfection, cells were plated onto sterile quartered 35-mm glass-bottomed dishes and grown to 50 to 70% confluence. Cells were then transfected using Lipofectamine 2000 (Invitrogen, HeLa) or PolyJet (SignaGen Laboratories, HEK293T and NIH3T3) and grown an additional 48 hours (HeLa, HEK293T) before imaging. NIH3T3 cells were changed to serum-free DMEM immediately before transfection, medium was changed to complete medium after 6 h. NIH3T3 cells were then serum-starved for 24 hours before imaging. HaloTag labeling was performed 24 h before imaging using synthetic fluorophores (Fluorophore-CA 500 nM, 24 h, 37° C.) in the respective medium. Synthetic fluorophores were kindly provided by Luke Lavis (Janelia Research Campus, JF669-CA, JFX646-CA and JF635) or Kai Johnsson (Max Planck Institute for Medical Research (Germany) and EPFL (Switzerland), NGD-CA). […]

Test [3] has as its system ERK. The experiment in a line: Multiplexed biosensor imaging in HEK293T cells: ERK activity (yellow/far-red HaloTag-EKAR). The following applies: HEK293T cells co-expressing yellow/far-red HaloTag-EKAR and red/far-red HaloTag-AKAR; 100 ng/mL hEGF. The procedure:
as §1

Each structure is given as a SMILES string.

For `O=S(=O)(NCCNC/C=C/c1ccc(Br)cc1)c1cccc2cnccc12` [H89], the “FRET/yellow emission ratio after addition of H89” value in test [1] (HeLa cells expressing RFP-HaloTag^(NGD) AKARs, H89 added after 8 minutes of Fsk/IBMX stimulation) is “FRET/yellow emission ratio of most biosensors decreased”. Also, the “normalized FRET/donor ratio after addition of H89” value in test [1] (HeLa cells expressing YFP-HaloTag^(JF669) AKARs, after 50 μM Fsk and 100 μM IBMX) is recorded as “reversible”. In addition, in test [2], the PKA activity entry is given as “decrease in PKA activity”.
Consider `CC(C)Cn1c(=O)n(C)c(=O)c2[nH]cnc21` [IBMX, 3-isobutyl-1-methylxanthine], for which the PKA activity entry in test [2] is listed as “rapid increase in PKA activity”.
As to `O=C(Nc1ccc2[nH]nc(-c3ccncc3)c2c1)[C@@H]1CCN(CC(=O)N2CCN(c3ccc(-c4ncccn4)cc3)CC2)C1` [SCH772984], the ERK activity result in test [3] is listed as “only decreased ERK activity”.
